Where a SMILES comes first, the peptide text is derived from it. [ ]: non-standard residue; d: D form. The star is where a group is joined. Acryloyl(3-(pyridin-3-yl)) = O=C(C=Cc1cccnc1)*; Propanoyl(3-(4-Cl-Ph)) = O=C(CCc1ccc(Cl)cc1)*; 2Naphthoyl(6-OH) = O=C(c1ccc2cc(O)ccc2c1)*; Quinoline3carbonyl = O=C(c1cnc2ccccc2c1)*; X6 = O=C(/C=C\c1ccc([N+](=O)[O-])cc1)*; X36 = O=C(C=Cc1ccc(OS(=O)(=O)O)cc1)*; X20 = CC(=O)Oc1ccc2cc(C(=O)*)ccc2c1; X22 = O=C(CCc1cccc(OS(=O)(=O)O)c1)*; Hydrocinnamoyl = O=C(CCc1ccccc1)*; NMeF = CN[C@@H](Cc1ccccc1)C(=O)O; X10 = O=C(/C=C\c1ccc(Cl)cc1Cl)*; X31 = COc1ccc(/C=C\C(=O)*)cc1OC; X37 = O=C(C=Cc1c[nH]c2ccccc12)*; X7 = CN(C)c1ccc(/C=C\C(=O)*)cc1; X21 = O=C(/C=C\c1ccc(Br)cc1)*; X18 = O=C(c1cc2ccccc2[nH]1)*; X19 = O=C(/C=C\c1ccccc1)*; X5 = O=C(CCc1cccc(O)c1)*; Boc = CC(C)(C)OC(=O)*

The assay has as its target Gastrin/cholecystokinin type B receptor (Cavia porcellus). In words: Inhibition of specific binding of [125I]BH-CCK-8 in guinea pig cortex.

For `CC(C)(C)OC(=O)N[C@@H](Cc1c[nH]c2ccccc12)C(=O)N[C@@H](CCCCNC(=O)/C=C\c1ccc(Br)cc1)C(=O)N[C@@H](CC(=O)O)C(=O)N[C@@H](Cc1ccccc1)C(N)=O` [3-{6-[3-(4-Bromo-phenyl)-acryloylamino]-2-[2-tert-butoxycarbonylamino-3-(1H-indol-3-yl)-propionylamino]-hexanoylamino}-N-(1-carbamoyl-2-phenyl-ethyl)-succinamic acid; hydrate.NH4OH] (Boc-WK(X21)DF-NH2), the IC50 is 5100 nM.

The compound `CC(C)(C)OC(=O)N[C@@H](Cc1c[nH]c2ccccc12)C(=O)N[C@@H](CCCCNC(=O)CCc1cccc(O)c1)C(=O)N[C@@H](CC(=O)O)C(=O)N[C@@H](Cc1ccccc1)C(N)=O` [3-{2-[2-tert-Butoxycarbonylamino-3-(1H-indol-3-yl)-propionylamino]-6-[3-(3-hydroxy-phenyl)-propionylamino]-hexanoylamino}-N-(1-carbamoyl-2-phenyl-ethyl)-succinamic acid; hydarte] (Boc-WK(X5)DF-NH2) displayed an IC50 of 3000 nM.

With `CC(C)(C)OC(=O)N[C@@H](Cc1c[nH]c2ccccc12)C(=O)N[C@@H](CCCCNC(=O)CCc1ccccc1)C(=O)N[C@@H](CC(=O)O)C(=O)N[C@@H](Cc1ccccc1)C(N)=O` [3-[2-[2-tert-Butoxycarbonylamino-3-(1H-indol-3-yl)-propionylamino]-6-(3-phenyl-propionylamino)-hexanoylamino]-N-(1-carbamoyl-2-phenyl-ethyl)-succinamic acid.2AcOH] (Boc-WK(Hydrocinnamoyl)DF-NH2), the half-maximal inhibitory concentration (IC50) was 5900 nM. `CC(C)(C)OC(=O)N[C@@H](Cc1c[nH]c2ccccc12)C(=O)N[C@@H](CCCCNC(=O)/C=C\c1ccc([N+](=O)[O-])cc1)C(=O)N[C@@H](CC(=O)O)C(=O)N[C@@H](Cc1ccccc1)C(N)=O` [3-{2-[2-tert-Butoxycarbonylamino-3-(1H-indol-3-yl)-propionylamino]-6-[3-(4-nitro-phenyl)-acryloylamino]-hexanoylamino}-N-(1-carbamoyl-2-phenyl-ethyl)-succinamic acid; hydrate] (Boc-WK(X6)DF-NH2) gave an IC50 of 4400 nM. Take `CC(C)(C)OC(=O)N[C@@H](Cc1c[nH]c2ccccc12)C(=O)N[C@@H](CCCCNC(=O)/C=C\c1ccccc1)C(=O)N[C@@H](CC(=O)O)C(=O)N[C@@H](Cc1ccccc1)C(N)=O` [3-[2-[2-tert-Butoxycarbonylamino-3-(1H-indol-3-yl)-propionylamino]-6-(3-phenyl-acryloylamino)-hexanoylamino]-N-(1-carbamoyl-2-phenyl-ethyl)-succinamic acid.AcOH] (Boc-WK(X19)DF-NH2): the IC50 was found to be 1800 nM. This IC50 lies about 2.4-fold lower than the previous one. `CC(=O)Oc1ccc2cc(C(=O)NCCCC[C@H](NC(=O)[C@H](Cc3c[nH]c4ccccc34)NC(=O)OC(C)(C)C)C(=O)N[C@@H](CC(=O)O)C(=O)N[C@@H](Cc3ccccc3)C(N)=O)ccc2c1` (Boc-WK(X20)DF-NH2) came in with a half-inhibitory concentration (IC50) of 1400 nM. The same measure for `CC(C)(C)OC(=O)N[C@@H](Cc1c[nH]c2ccccc12)C(=O)N[C@@H](CCCCNC(=O)CCc1cccc(OS(=O)(=O)O)c1)C(=O)N[C@@H](CC(=O)O)C(=O)N[C@@H](Cc1ccccc1)C(N)=O` [3-{2-[2-tert-Butoxycarbonylamino-3-(1H-indol-3-yl)-propionylamino]-6-[3-(3-sulfooxy-phenyl)-propionylamino]-hexanoylamino}-N-(1-carbamoyl-2-phenyl-ethyl)-succinamic acid; NH40H.hydrate] (Boc-WK(X22)DF-NH2): 10000 nM; for `CC(C)(C)OC(=O)N[C@@H](Cc1c[nH]c2ccccc12)C(=O)N[C@@H](CCCCNC(=O)c1cc2ccccc2[nH]1)C(=O)N[C@@H](CC(=O)O)C(=O)N[C@@H](Cc1ccccc1)C(N)=O` (Boc-WK(X18)DF-NH2): 2100 nM; for `CN(C(=O)[C@H](CC(=O)O)NC(=O)[C@H](CCCCNC(=O)c1ccc2cc(O)ccc2c1)NC(=O)[C@H](Cc1c[nH]c2ccccc12)NC(=O)OC(C)(C)C)[C@@H](Cc1ccccc1)C(N)=O` (Boc-WK(2Naphthoyl(6-OH))D[NMeF]-NH2): 730 nM. For the compound `CN(C)c1ccc(/C=C\C(=O)NCCCC[C@H](NC(=O)[C@H](Cc2c[nH]c3ccccc23)NC(=O)OC(C)(C)C)C(=O)N[C@@H](CC(=O)O)C(=O)N[C@@H](Cc2ccccc2)C(N)=O)cc1` [3-{2-[2-tert-Butoxycarbonylamino-3-(1H-indol-3-yl)-propionylamino]-6-[3-(4-dimethylamino-phenyl)-acryloylamino]-hexanoylamino}-N-(1-carbamoyl-2-phenyl-ethyl)-succinamic acid; hydrate] (Boc-WK(X7)DF-NH2), the IC50 was 2100 nM. `CC(C)(C)OC(=O)N[C@@H](Cc1c[nH]c2ccccc12)C(=O)N[C@@H](CCCCNC(=O)/C=C\c1ccc(Cl)cc1Cl)C(=O)N[C@@H](CC(=O)O)C(=O)N[C@@H](Cc1ccccc1)C(N)=O` [3-{2-[2-tert-Butoxycarbonylamino-3-(1H-indol-3-yl)-propionylamino]-6-[3-(2,4-dichloro-phenyl)-acryloylamino]-hexanoylamino}-N-(1-carbamoyl-2-phenyl-ethyl)-succinamic acid; hydrate] (Boc-WK(X10)DF-NH2) yielded an IC50 of 5000 nM. Compared with the last compound, the IC50 is about 2.4-fold higher. `CN(C(=O)[C@H](CC(=O)O)NC(=O)[C@H](CCCCNC(=O)C=Cc1ccc(OS(=O)(=O)O)cc1)NC(=O)[C@H](Cc1c[nH]c2ccccc12)NC(=O)OC(C)(C)C)[C@@H](Cc1ccccc1)C(N)=O` (Boc-WK(X36)D[NMeF]-NH2) gave an IC50 of 1000 nM.

Compound `COc1ccc(/C=C\C(=O)NCCCC[C@H](NC(=O)[C@H](Cc2c[nH]c3ccccc23)NC(=O)OC(C)(C)C)C(=O)N[C@@H](CC(=O)O)C(=O)N[C@@H](Cc2ccccc2)C(N)=O)cc1OC` [3-{2-[2-tert-Butoxycarbonylamino-3-(1H-indol-3-yl)-propionylamino]-6-[3-(3,4-dimethoxy-phenyl)-acryloylamino]-hexanoylamino}-N-(1-carbamoyl-2-phenyl-ethyl)-succinamic acid; hydrate] (Boc-WK(X31)DF-NH2) showed an IC50 of 4000 nM. For `CC(C)(C)OC(=O)N[C@@H](Cc1c[nH]c2ccccc12)C(=O)N[C@@H](CCCCNC(=O)c1cnc2ccccc2c1)C(=O)N[C@@H](CC(=O)O)C(=O)N[C@@H](Cc1ccccc1)C(N)=O` (Boc-WK(Quinoline3carbonyl)DF-NH2), the IC50 stood at 200 nM. With `CC(C)(C)OC(=O)N[C@@H](Cc1c[nH]c2ccccc12)C(=O)N[C@@H](CCCCNC(=O)CCc1ccc(Cl)cc1)C(=O)N[C@@H](CC(=O)O)C(=O)N[C@@H](Cc1ccccc1)C(N)=O` [3-{2-[2-tert-Butoxycarbonylamino-3-(1H-indol-3-yl)-propionylamino]-6-[3-(4-chloro-phenyl)-propionylamino]-hexanoylamino}-N-(1-carbamoyl-2-phenyl-ethyl)-succinamic acid; hydrate] (Boc-WK(Propanoyl(3-(4-Cl-Ph)))DF-NH2), the half-inhibitory concentration (IC50) is 7000 nM.

As to `CN(C(=O)[C@H](CC(=O)O)NC(=O)[C@H](CCCCNC(=O)C=Cc1cccnc1)NC(=O)[C@H](Cc1c[nH]c2ccccc12)NC(=O)OC(C)(C)C)[C@@H](Cc1ccccc1)C(N)=O` (Boc-WK(Acryloyl(3-(pyridin-3-yl)))D[NMeF]-NH2), the IC50 stood at 120 nM.

Consider `CC(C)(C)OC(=O)N[C@@H](Cc1c[nH]c2ccccc12)C(=O)N[C@@H](CCCCNC(=O)C=Cc1c[nH]c2ccccc12)C(=O)N[C@@H](CC(=O)O)C(=O)N[C@@H](Cc1ccccc1)C(N)=O` (Boc-WK(X37)DF-NH2), for which the IC50 came out at 4700 nM. This IC50 is about 39-fold higher than that of the compound before.
